Measurements published in US10399966B2, “Compounds for treatment of trypanosomes and neurological pathogens and uses thereof” (The University of North Carolina at Chapel Hill, priority 2016, dated 2019).
Several values for one entry are separate records, joined by “and”; a condition that tells them apart may be missing. Identical values can stand only once. Like-named read-outs stand apart in the source and are kept apart here.

What was measured:
[1] = Mouse oral pharmacokinetics; assay type: in vivo
Description: […] Experiments were performed with groups of three mice per compound. Plasma was separated and extracted with acetonitrile for measurements of compound concentrations by liquid chromatography/tandem mass spectrometry.

[2] = Brain and plasma time-course after oral dosing; assay type: in vivo, mouse
Description: The brain and plasma concentrations of compound 1 were studied in a time-course experiment following oral dosing at 50 mg/kg (Table 15). […] At 24 h, the plasma concentrations are undetectable and brain levels are down to sub-micromolar concentrations. Compared to the previous experiment (Table 14), the BPR ratio for 1 is lower at 1 h post-dose (1.48 vs. 4.0) probably due to the oral route of administration (as opposed to the ip route used before) leading to slower systemic absorption and distribution.

T. b. brucei TREU667 = assay: Mouse efficacy model of chronic T. brucei infection; assay type: in vivo; settings: 50 mg/kg po b.i.d. x 10 days from day 21, no detectable parasitemia through 180 days post-infection, 50 mg/kg
Description: For chronic efficacy, experiments were done in compliance with the University of Washington IACUC approved protocol. According to published procedures, groups of 5 mice were infected with 1×10^4 T. b. brucei (strain TREU667) at day 0 to establish a chronic infection. Treatment began on day 21 post-infection, and mice received 50 mg/kg test compound orally b.i.d. for 10 d (total of 20 doses) in a 200 μL volume of a vehicle composed of Phosal 53 MCT (60%), PEG400 (30%) and EtOH (10%). A control group received vehicle with no compound and another control group received a single intraperitoneal dose of diminazene aceturate at 10 mg/kg in water on day 21. […] Post dosing, parasitemia was monitored via microscopic examination of tail blood slides until 180 days post-infection. Mice were removed from the experiment once parasites were detected in the blood.
In a model of the chronic phase of HAT, compound 1 was administered to five mice infected with T. b. brucei TREU667 at 50 mg/kg/po b.i.d.×10 days, beginning 21 days post-infection. […] Efficacy PK blood samples were collected from three of the five mice prior to dose 15, and at 1 h and 6 h post-dose. […] Compound 1 attained 5/5 cures as determined by the absence of detectable parasitemia in any of the treated mice through 180 days post-infection (FIG. 2). […]

Trypanosoma cruzi = assay: Efficacy against T. cruzi in vitro; assay type: cell-based
[3] = test system: human lymphocytes CRL-8155; assay: Cytotoxicity against CRL-8155 cells
Description: The selectivity of each compound for the parasite over each of the two cell lines was calculated.

human hepatocytes HepG2 = assay: Cytotoxicity against HepG2 cells
T. b. brucei = assay: In vitro antitrypanosomal activity against T. brucei (growth inhibition); assay type: cell-based, Trypanosoma brucei
Summary of the method: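 Dose-response EC50 against T. brucei parasites with 0.4% DMSO final, 48 h at 37 °C; parasite density quantified by ATP luminescence (CellTiter-Glo).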

[4] = Distribution between mouse plasma and brain (brain penetration, ip); assay type: in vivo
Summary of the method: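 Mice (n=3) received a single 5 mg/kg ip dose in 7% Tween 80, 3% ethanol, 5% DMSO, 0.9% saline and were sacrificed 1 h post-dose. Plasma and acetonitrile brain homogenates analysed by LC/MS/MS; brain concentration corrected for 2.5% vasculature volume, assuming 1 g = 1 mL.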

[5] = single oral dose 50 mg/kg, mice, 1 h
[6] = single oral dose 50 mg/kg, mice, 4 h
[7] = single oral dose 50 mg/kg, mice, 8 h
[8] = Table 14, mice, single ip dose 5 mg/kg, one hour post-dose, ± SEM of 3 mice (compound 3: 6 mice)

With `O=C(Nc1ccc2sc(-c3ccc(F)c(F)c3)nc2c1)N1CC[C@H](F)C1` [Compound 1, (S)-2-(3,4-Difluorophenyl)-5-(3-fluoro-N-pyrrolidylamido)benzothiazole] the “Mouse oral PK Tlast” value ([1]; Table 5) was 1440 min, the “Mouse oral PK Average AUC” value ([1]; Table 5, n = 3) was 13217 ± 2156 (n = 3) min * μmol/L and the “AUC0 min-∞” value ([1]; Table 13, mice, single 50 mg/kg oral gavage, vehicle Phosal 53 MCT(60%), PEG400 (30%), EtOH (10%)) was 14673 ± 2833 µM·min. The Cmax ([1]; Table 13, mice, single 50 mg/kg oral gavage, vehicle Phosal 53 MCT(60%), PEG400 (30%), EtOH (10%), read-out: Cmax) was 18.6 ± 5.54 µM, the Cmax ([1]; Table 13, mice, single 50 mg/kg oral gavage, vehicle Tween 80 (7%), EtOH (3%), DMSO (5%) in 0.9% NaCl, ± SEM of 3 mice, 50 mg/kg, read-out: Cmax) was 23.3 µM and the “AUC0 min-∞” value ([1]; Table 13, mice, single 50 mg/kg oral gavage, vehicle methylcellulose cP 400 (0.5%), Tween 80 (0.5%) in water) was 6352 ± 469 µM·min. The Cmax ([1]; Table 13, mice, single 50 mg/kg oral gavage, vehicle methylcellulose cP 400 (0.5%), Tween 80 (0.5%) in water, read-out: Cmax) was 8.54 ± 0.41 µM, the “percent of the Cmax remaining” value ([1]; mouse oral 50 mg/kg, 24 h time point) was “Less than 1%” and the Cmax ([1]; mouse, plasma, po, 50 mg/kg, Table 5, n = 3, read-out: Mouse oral PK Average Cmax) was 23.3 ± 5.22 µM. For the same compound, the Tmax ([1]; mouse, plasma, po, 50 mg/kg, Table 5, read-out: Mouse oral PK Tmax (converted)) was 2 h, the “AUC0 min-∞, brain” value ([2]; mouse, in vivo, po, 50 mg/kg) was 43116.8 ± 2304 µM·min and the “AUC0 min-∞, plasma” value ([2]; mouse, in vivo, po, 50 mg/kg) was 10798 ± 1975 µM·min. For the same compound, the “[compd]Brain” value ([2]; mouse, in vivo, po, 50 mg/kg) was “sub-micromolar”, the Brain/plasma ratio [2, 5] was 1.48 and the “[compd]Brain” value [2, 5] was 38.23 ± 13.51 µM. For the same compound, the “[compd]Plasma” value [2, 5] was 27.14 ± 9.91 µM, the Brain/plasma ratio [2, 6] was 4.43 and the “[compd]Brain” value [2, 6] was 45.2 ± 10.4 µM. The “[compd]Plasma” value [2, 6] was 10.25 ± 2.21 µM, the Brain/plasma ratio [2, 7] was 5.48 and the “[compd]Brain” value [2, 7] was 48.08 ± 2.47 µM. For the same compound, the “[compd]Plasma” value [2, 7] was 8.97 ± 1.05 µM, the “mice cured (cures)” value (T. b. brucei TREU667) was 5 of 5 and 5/5 and the EC50 (Trypanosoma cruzi; Table 1, Trypanosoma cruzi, read-out: EC50) was 118 nM. It also gave an EC90 (Trypanosoma cruzi; Table 1, Trypanosoma cruzi, read-out: EC90) of 178 nM, an EC50 (Trypanosoma cruzi; Trypanosoma cruzi, Table 6, read-out: T. cruzi EC50) of 58.5 nM and an EC50 (Trypanosoma cruzi; Trypanosoma cruzi, Table 10, read-out: T.cruzi EC50) of 118 nM. The EC90 (Trypanosoma cruzi; Trypanosoma cruzi, Table 10, read-out: T.cruzi EC90) was 178 nM, the “toxicity to the CRL-8155 cells (in words)” value [3] was “no detectable toxicity” and the EC50 ([3]; read-out: CRL-8155 EC50, concentration required to inhibit growth by 50%, human lymphoblasts) was greater than 50000 nM. The EC90 ([3]; read-out: CRL-8155 EC90, concentration required to inhibit growth by 90%, human lymphoblasts) was greater than 50000 nM, the “toxicity to the HepG2 cells (in words)” value (human hepatocytes HepG2) was “no detectable toxicity” and the EC50 (human hepatocytes HepG2; Homo sapiens, HepG2, read-out: HepG2 EC50) was greater than 50000 nM. The EC90 (human hepatocytes HepG2; read-out: HepG2 EC90, concentration required to inhibit growth by 90%, human hepatocytes) was greater than 50000 nM, the EC90 (T. b. brucei; Table 1, Trypanosoma brucei, read-out: EC90) was 54.8 nM and the EC50 (T. b. brucei; Trypanosoma brucei, Table 1, Trypanosoma brucei, read-out: EC50) was 34.8 nM. For the same compound, the EC50 (T. b. brucei; Trypanosoma brucei, Table 6, read-out: T. brucei EC50) was 34.8 nM, the EC50 (T. b. brucei; Trypanosoma brucei, Table 8, read-out: T. brucei EC50) was 34.8 nM and the EC50 (T. b. brucei; Trypanosoma brucei, Table 11, read-out: T. b. brucei EC50) was 34.8 nM. The EC50 (T. b. brucei; Trypanosoma brucei, Table 12, read-out: T. b. brucei EC50) was 34.8 nM, the EC50 (T. b. brucei; Trypanosoma brucei, Table 9, read-out: T. brucei EC50) was 34.8 nM and the EC90 (T. b. brucei; Trypanosoma brucei, Table 9, read-out: T. brucei EC90) was 54.8 nM. The Average brain/plasma ratio ([4]; Table 2, mouse, n = 3) was 4.0000 ± 0.624, the “Average [compound] brain” value ([4]; Table 8, groups of 3 mice (compound 3: ± SEM of 6 mice)) was 9.07 ± 6.88 µM and the Brain/plasma ratio ([4]; Table 14, mice, single ip dose 5 mg/kg, one hour post-dose) was 4.0. For the same compound, the “[compound]Brain” value [4, 8] was 9.07 ± 3.973 µM, the “[compound]Plasma” value [4, 8] was 2.27 ± 0.888 µM and the concentration at 1 h ([4]; mouse, in vivo, 5 mg/kg, Table 2, mouse, n = 3, read-out: Average concentration in brain) was 9.07 ± 6.88 µM. The concentration at 1 h ([4]; mouse, in vivo, 5 mg/kg, Table 2, mouse, n = 3, read-out: Average concentration in plasma) was 2.27 ± 1.54 µM, the concentration at 60 min ([4]; mouse, in vivo, 5 mg/kg, Table 5 r15, mouse brain penetration (60 min), n = 3) was 2.27 ± 1.54 µM and the concentration at 1 h ([4]; mouse, in vivo, 5 mg/kg, Table 8, groups of 3 mice (compound 3: ± SEM of 6 mice), read-out: Average [compound] plasma) was 2.27 ± 1.54 µM.
